Counter-ions that a name gives are not always drawn.
Tests used:
[1] = Hydrolysis by human intestine s9 fractions; format: in vitro ADME; settings: substrate 100 μM, 3 concentrations of HIS9
[2] = Hydrolysis by human kidney s9 fractions; format: in vitro ADME; settings: substrate 100 μM, 3 concentrations of HKS9
Hydrolysis = settings: for Vmax: HLS9, PBS pH 7.4, 37 °C, unit for ACEIs other than enalapril; for Km: human, pooled human liver s9 fractions (HLS9), pH 7.4; for Hydrolysis to active metabolite by human liver s9 fractions: prodrug 100 μM, 3 concentrations of HLS9
CES1 variant G143E [3] = biological target: T1, CES1 variant G143E (Homo sapiens, UniProt P23141, G142E); experiment: Hydrolysis by s9 fractions of cells stably expressing the CES1 variant G143E; settings: prodrug 100 μM, 3 concentrations of cell s9
T1 sequence (P23141 18-568 isoform P23141-2 G143E limits assumed): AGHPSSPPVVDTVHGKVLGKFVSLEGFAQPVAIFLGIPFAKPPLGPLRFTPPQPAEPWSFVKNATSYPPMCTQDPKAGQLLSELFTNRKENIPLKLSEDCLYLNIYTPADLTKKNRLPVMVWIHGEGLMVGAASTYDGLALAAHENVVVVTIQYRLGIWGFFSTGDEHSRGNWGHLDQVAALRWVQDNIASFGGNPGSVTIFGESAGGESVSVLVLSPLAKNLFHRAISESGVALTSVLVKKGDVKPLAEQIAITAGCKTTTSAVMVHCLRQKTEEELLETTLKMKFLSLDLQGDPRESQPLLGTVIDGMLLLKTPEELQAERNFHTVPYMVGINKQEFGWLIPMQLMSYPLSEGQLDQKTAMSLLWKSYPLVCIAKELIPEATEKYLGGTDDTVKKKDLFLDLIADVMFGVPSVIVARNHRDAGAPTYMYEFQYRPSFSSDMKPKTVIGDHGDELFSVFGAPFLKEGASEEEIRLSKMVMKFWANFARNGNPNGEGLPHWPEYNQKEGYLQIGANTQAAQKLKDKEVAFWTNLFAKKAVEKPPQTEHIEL

wild type (WT) CES1 = biological target: T2, wild type (WT) CES1 (Homo sapiens, UniProt P23141); settings: prodrug 100 μM, 3 concentrations of cell s9
T2 sequence (P23141 18-568 isoform P23141-2 limits assumed): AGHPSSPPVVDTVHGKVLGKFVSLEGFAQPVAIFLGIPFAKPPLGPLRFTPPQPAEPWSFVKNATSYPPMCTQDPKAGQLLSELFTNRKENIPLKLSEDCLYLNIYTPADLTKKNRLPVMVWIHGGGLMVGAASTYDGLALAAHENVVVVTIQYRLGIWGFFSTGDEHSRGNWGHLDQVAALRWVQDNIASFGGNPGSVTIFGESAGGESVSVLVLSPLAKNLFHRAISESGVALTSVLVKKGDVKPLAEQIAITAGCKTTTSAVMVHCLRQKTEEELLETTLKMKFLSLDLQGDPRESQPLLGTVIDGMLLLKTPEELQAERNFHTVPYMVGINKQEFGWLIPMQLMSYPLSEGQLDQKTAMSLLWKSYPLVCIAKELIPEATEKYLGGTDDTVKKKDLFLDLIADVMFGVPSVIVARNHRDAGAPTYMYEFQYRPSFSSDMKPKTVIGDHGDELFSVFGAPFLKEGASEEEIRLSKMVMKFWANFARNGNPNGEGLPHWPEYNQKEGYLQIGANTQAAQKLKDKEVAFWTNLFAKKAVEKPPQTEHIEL

[4] = ref [24]; cited from earlier work
CES1 variant G143E [5] = biological target: T1, CES1 variant G143E; settings: in vitro function study; ref [13], [15], [22], [23]; cited from earlier work
[6] = Japanese cancer patients receiving irinotecan; ref [21]; cited from earlier work
[7] = after oseltamivir; ref [26]; cited from earlier work
[8] = ref [20]; cited from earlier work
[9] = tested on: CES1 in individual human liver s9 fractions; format: in vitro ADME; settings: CES1 expression comparable to pooled HLS9
not read [10] = substrate: CCC(=O)O[C@@H](O[P@](=O)(CCCCc1ccccc1)CC(=O)N1C[C@H](C2CCCCC2)C[C@H]1C(=O)O)C(C)C; experiment: not read; settings: other: WT CES1 cell s9; pH 7.4
not read [11] = substrate: CCC[C@H](N[C@@H](C)C(=O)N1[C@H](C(=O)O)C[C@@H]2CCCC[C@@H]21)C(=O)OCC; experiment: not read; settings: other: WT CES1 cell s9; pH 7.4
not read [12] = substrate: CCOC(=O)[C@H](CCc1ccccc1)N[C@@H](C)C(=O)N1CCC[C@H]1C(=O)O; experiment: not read; settings: other: WT CES1 cell s9; pH 7.4
not read [13] = substrate: CCOC(=O)[C@H](CCc1ccccc1)N[C@@H](C)C(=O)N1Cc2cc(OC)c(OC)cc2C[C@H]1C(=O)O; experiment: not read; settings: other: WT CES1 cell s9; pH 7.4
not read [14] = substrate: CCOC(=O)[C@H](CCc1ccccc1)N[C@@H](C)C(=O)N1[C@H](C(=O)O)C[C@@H]2CCC[C@@H]21; experiment: not read; settings: other: WT CES1 cell s9; pH 7.4

CCC(=O)O[C@@H](O[P@](=O)(CCCCc1ccccc1)CC(=O)N1C[C@H](C2CCCCC2)C[C@H]1C(=O)O)C(C)C [Fosinopril, Fosinopril sodium salt]
Hydrolysis by human intestine s9 fractions [1]: No appreciable activation
Hydrolysis by human kidney s9 fractions [2]: No appreciable activation
Vmax (Hydrolysis): 1.4 ± 0.2 nmole/min/mg protein
Km (Hydrolysis): 471 ± 212 µM
Hydrolysis to active metabolite by human liver s9 fractions (Hydrolysis): efficiently hydrolyzed

CCOC(=O)[C@H](CCc1ccccc1)N[C@@H](C)C(=O)N1Cc2cc(OC)c(OC)cc2C[C@H]1C(=O)O [Moexipril, moexipril hydrochloride]
Hydrolysis by human intestine s9 fractions [1]: No appreciable activation
Hydrolysis by human kidney s9 fractions [2]: No appreciable activation
Vmax (Hydrolysis): 4.4 ± 0.3 nmole/min/mg protein
Km (Hydrolysis): 1460 ± 266 µM
Hydrolysis to active metabolite by human liver s9 fractions (Hydrolysis): efficiently hydrolyzed

CC(=O)Oc1ccc([N+](=O)[O-])cc1 [PNPA, p-nitrophenyl acetate]
Hydrolysis by human intestine s9 fractions [1]: readily hydrolyzed
Hydrolysis by human kidney s9 fractions [2]: readily hydrolyzed

CCC[C@H](N[C@@H](C)C(=O)N1[C@H](C(=O)O)C[C@@H]2CCCC[C@@H]21)C(=O)OCC [Perindopril, perindopril erbumine]
Hydrolysis by human intestine s9 fractions [1]: No appreciable activation
Hydrolysis by human kidney s9 fractions [2]: No appreciable activation
Vmax (Hydrolysis): 18.1 ± 0.8 nmole/min/mg protein
Km (Hydrolysis): 1770 ± 165 µM
Hydrolysis to active metabolite by human liver s9 fractions (Hydrolysis): efficiently hydrolyzed

CCOC(=O)[C@H](CCc1ccccc1)N[C@@H](C)C(=O)N1[C@H](C(=O)O)C[C@@H]2CCC[C@@H]21 [Ramipril, ramipril]
Hydrolysis by human intestine s9 fractions [1]: No appreciable activation
Hydrolysis by human kidney s9 fractions [2]: No appreciable activation
Vmax (Hydrolysis): 18.1 ± 0.7 nmole/min/mg protein
Km (Hydrolysis): 690 ± 61.8 µM
Hydrolysis to active metabolite by human liver s9 fractions (Hydrolysis): efficiently hydrolyzed
Active metabolite after incubation with CES1 variant G143E (CES1 variant G143E [3]): not detected
Hydrolysis to active metabolite by WT CES1 (wild type (WT) CES1): readily hydrolyzed

COC(=O)[C@H](c1ccccc1Cl)N1CC[C@@H](S)/C(=C\C(=O)O)C1 [clopidogrel active metabolite]
concentrations higher in patients carrying heterozygous 143E relative to 143GG [4]: approximately 60%

COC(=O)[C@H](c1ccccc1Cl)N1CCc2sccc2C1 [clopidogrel]
Function of the G143E variant for metabolism of the substrate (CES1 variant G143E [5]): loss-of-function

CCc1c2c(nc3ccc(OC(=O)N4CCC(N5CCCCC5)CC4)cc13)-c1cc3c(c(=O)n1C2)COC(=O)[C@]3(O)CC [irinotecan]
median AUC ratios of metabolites SN-38 and SN-38G to parent compound, higher in CES1P1VAR heterozygous and homozygous patients vs CES1P1/CES1P1 [6]: 24%

COC(=O)C(c1ccccc1)C1CCCCN1 (centres unmarked) [methylphenidate]
Function of the G143E variant for metabolism of the substrate (CES1 variant G143E [5]): loss-of-function

CCC(CC)O[C@@H]1C=C(C(=O)O)C[C@H](N)[C@H]1NC(C)=O [oseltamivir carboxylate]
mean Cmax lower in 143E heterozygotes than in non-carriers [7]: 17.5%

CCOC(=O)C1=C[C@@H](OC(CC)CC)[C@H](NC(C)=O)[C@@H](N)C1 [oseltamivir]
Metabolism in healthy subjects with different CES1/CES1VAR genotypes [8]: not significantly different

CCOC(=O)[C@H](CCc1ccccc1)N[C@@H](C)C(=O)N1[C@H](C(=O)O)C[C@H]2CCCC[C@@H]21 [trandolapril]
CES1 activity in the null-CES1 liver samples (some G143E non-carriers) [9]: inactive
Function of the G143E variant for metabolism of the substrate (CES1 variant G143E [5]): loss-of-function

B1: wild type (WT) CES1 (Homo sapiens) (protein)
chain: AGHPSSPPVVDTVHGKVLGKFVSLEGFAQPVAIFLGIPFAKPPLGPLRFTPPQPAEPWSFVKNATSYPPMCTQDPKAGQLLSELFTNRKENIPLKLSEDCLYLNIYTPADLTKKNRLPVMVWIHGGGLMVGAASTYDGLALAAHENVVVVTIQYRLGIWGFFSTGDEHSRGNWGHLDQVAALRWVQDNIASFGGNPGSVTIFGESAGGESVSVLVLSPLAKNLFHRAISESGVALTSVLVKKGDVKPLAEQIAITAGCKTTTSAVMVHCLRQKTEEELLETTLKMKFLSLDLQGDPRESQPLLGTVIDGMLLLKTPEELQAERNFHTVPYMVGINKQEFGWLIPMQLMSYPLSEGQLDQKTAMSLLWKSYPLVCIAKELIPEATEKYLGGTDDTVKKKDLFLDLIADVMFGVPSVIVARNHRDAGAPTYMYEFQYRPSFSSDMKPKTVIGDHGDELFSVFGAPFLKEGASEEEIRLSKMVMKFWANFARNGNPNGEGLPHWPEYNQKEGYLQIGANTQAAQKLKDKEVAFWTNLFAKKAVEKPPQTEHIEL
Km (not read [10]): 276.1 ± 83.2 µM
Vmax (not read [10]): 1.6 ± 0.1 nmole/min/mg protein
Vmax/Km (not read [10]): 5.7 μl/min/mg protein
Km (not read [11]): 477.5 ± 60.9 µM
Vmax (not read [11]): 8.3 ± 0.4 nmole/min/mg protein
Vmax/Km (not read [11]): 17.4 μl/min/mg protein
Km (not read [12]): 36.6 ± 4.5 µM
Vmax (not read [12]): 389.0 ± 16.1 pmole/min/mg protein
Vmax/Km (not read [12]): 10.6 μl/min/mg protein
Km (not read [13]): 143.6 ± 24.5 µM
Vmax (not read [13]): 1.8 ± 0.1 nmole/min/mg protein
Vmax/Km (not read [13]): 12.4 μl/min/mg protein
Km (not read [14]): 245.6 ± 39.9 µM
Vmax (not read [14]): 11.6 ± 0.6 nmole/min/mg protein
Vmax/Km (not read [14]): 47.1 μl/min/mg protein

— paper PMC6329299 (The pharmacogenomics journal, 2015)
